ChEMBL document CHEMBL1201862, “PubChem BioAssay data set” (2004)
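Grown in 96-well plates, cells were treated for 48 hours with each compound at five concentrations. Insufficient inhibition: endpoint recorded as highest concentration tested. The concentration for 50% growth inhibition is given as GI50.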 Calls of active or inactive are those of the source. Rule as the data show it: active = GI50 up to about 1.1 µM and inactive = higher.

Legend:
Test in all cases: DTP human tumour cell line panel, 48 h
OVCAR-3 = test system: OVCAR-3
ACHN = test system: ACHN
UO-31 = test system: UO-31
EKVX = test system: EKVX
OVCAR-4 = test system: OVCAR-4
HT-29 = test system: HT-29
NCI-H522 = test system: NCI-H522
PC-3 = test system: PC-3
KM12 = test system: KM12
A498 = test system: A498
K562 = test system: K562
NCI-H23 = test system: NCI-H23
T47D = test system: T47D
SN12C = test system: SN12C
SNB-75 = test system: SNB-75
CCRF-CEM = test system: CCRF-CEM
MCF7 = test system: MCF7
HL-60 = test system: HL-60
HCC 2998 = test system: HCC 2998
SK-MEL-28 = test system: SK-MEL-28

Measured: GI50

COn1cc(CO)c2ccccc21
inactive: OVCAR-3 40.8 µM | ACHN 61.4 µM | UO-31 33.1 µM | EKVX > 83.2 µM | OVCAR-4 34 µM | HT-29 > 58.5 µM | NCI-H522 21.5 µM | PC-3 > 75.2 µM | KM12 > 100 µM | A498 1.82 µM | K562 31.2 µM | NCI-H23 > 100 µM | T47D 30.8 µM | SN12C > 84.7 µM | SNB-75 > 100 µM | CCRF-CEM 34.7 µM | MCF7 52.7 µM | HL-60 31.3 µM | HCC 2998 32.8 µM | SK-MEL-28 > 100 µM

COCCNc1cncc(C(N)=O)c1
inactive: OVCAR-3 > 100 µM | ACHN > 100 µM | UO-31 > 100 µM | EKVX > 100 µM | OVCAR-4 > 100 µM | HT-29 > 100 µM | NCI-H522 > 100 µM | PC-3 > 100 µM | KM12 > 100 µM | A498 > 100 µM | K562 > 100 µM | NCI-H23 > 100 µM | T47D 65.6 µM | SN12C > 100 µM | SNB-75 87.9 µM | CCRF-CEM > 100 µM | MCF7 > 100 µM | HL-60 > 100 µM | HCC 2998 > 100 µM | SK-MEL-28 > 100 µM

CN(C)Cc1cc(/N=N/c2c(Cl)cccc2Cl)ccc1O
inactive: OVCAR-3 57.4 µM | ACHN 56.4 µM | UO-31 36 µM | EKVX > 100 µM | OVCAR-4 > 100 µM | HT-29 50.4 µM | NCI-H522 > 100 µM | PC-3 > 100 µM | KM12 > 100 µM | A498 55.5 µM | K562 53.5 µM | NCI-H23 63.4 µM | T47D 42.6 µM | SN12C > 100 µM | SNB-75 > 100 µM | CCRF-CEM > 100 µM | MCF7 > 100 µM | HL-60 68.4 µM | HCC 2998 > 100 µM | SK-MEL-28 71.8 µM
